Data from ChEMBL document CHEMBL4680337, “Synthetic 1,4-Naphthoquinones inhibit P2X7 receptors in murine neuroblastoma cells” (Bioorg Med Chem, 2021).
Active and inactive are the calls of the source. The calls are words filed in the database; no cut-off is given here.

Tests used:
Type in all cases: cell-based
[1] = target: T1, P2X purinoceptor 7 (Mus musculus) (UniProt Q9Z1M0); test: Antagonist activity at P2X7R in mouse N2a cells assessed as cytoprotective activity against ATP-induced cell death by measuring increase in cell viability at 10 uM incubated for 1 hr followed by ATP addition and measured after 48 hrs by MTT assay relative to control; details: time 49.0 hrs
T1 sequence (whole entry): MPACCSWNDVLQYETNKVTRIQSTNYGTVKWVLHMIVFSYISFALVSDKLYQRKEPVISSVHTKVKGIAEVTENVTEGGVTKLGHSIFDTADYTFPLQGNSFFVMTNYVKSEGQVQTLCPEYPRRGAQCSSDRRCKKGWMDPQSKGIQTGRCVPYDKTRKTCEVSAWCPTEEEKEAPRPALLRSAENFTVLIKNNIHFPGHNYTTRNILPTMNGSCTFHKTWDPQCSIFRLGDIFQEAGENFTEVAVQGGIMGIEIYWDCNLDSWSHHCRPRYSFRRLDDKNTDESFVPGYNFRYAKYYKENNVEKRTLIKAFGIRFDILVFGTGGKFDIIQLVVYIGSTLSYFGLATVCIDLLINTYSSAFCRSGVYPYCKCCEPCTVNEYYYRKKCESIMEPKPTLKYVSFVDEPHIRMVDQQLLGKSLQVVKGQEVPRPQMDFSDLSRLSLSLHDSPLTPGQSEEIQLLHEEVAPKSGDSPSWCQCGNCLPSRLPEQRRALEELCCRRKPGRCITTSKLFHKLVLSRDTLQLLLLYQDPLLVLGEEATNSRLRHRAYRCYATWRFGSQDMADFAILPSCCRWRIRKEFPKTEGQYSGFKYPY

[2] = target: T1, P2X purinoceptor 7 (Mus musculus); test: Antagonist activity at P2X7R in mouse N2a cells assessed as inhibition of ATP-induced ROS production at 10 uM incubated for 1 hr by using H2DCF-DA probe based fluorescence assay
[3] = target: T1, P2X purinoceptor 7 (Mus musculus); test: Antagonist activity at P2X7R in mouse N2a cells assessed as inhibition of ATP-induced NO production at 10 uM incubated for 1 hr by using DAF-FM probe based fluorescence assay
[4] = target: T1, P2X purinoceptor 7 (Mus musculus); test: Antagonist activity at P2X7R in mouse N2a cells assessed as reduction in ATP-induced YO-PRO-1 uptake by cells at 10 uM incubated for 1 hr by fluorescence based assay relative to control
[5] = target: T1, P2X purinoceptor 7 (Mus musculus); test: Antagonist activity at P2X7R in mouse N2a cells assessed as reduction in ATP-induced calcium influx at 10 uM incubated for 1 hr by Fura-2AM dye based spectrofluorometry relative to control
[6] = target: T1, P2X purinoceptor 7 (Mus musculus); test: Antagonist activity at P2X7R in mouse N2a cells assessed as reduction in ATP-induced EtBr uptake by cells incubated for 1 hr by fluorescence based assay relative to control; details: concentration not given here
[7] = target: T1, P2X purinoceptor 7 (Mus musculus); test: Antagonist activity at P2X7R in mouse N2a cells assessed as reduction in ATP-induced calcium influx at 5 uM incubated for 1 hr by Fluo-3AM dye based laser scanning microscopy
N2a = test: Cytotoxicity against mouse N2a cells assessed as reduction in cell viability incubated for 24 hrs by MTT assay
[8] = target: T1, P2X purinoceptor 7 (Mus musculus); test: Antagonist activity at P2X7R in mouse N2a cells assessed as cytoprotective activity against ATP-induced cell death by measuring increase in cell viability at 0.1 to 5 uM incubated for 1 hr followed by ATP addition and measured after 48 hrs by MTT assay; details: dose 0.1-5 µM, time 49.0 hrs
[9] = target: T1, P2X purinoceptor 7 (Mus musculus); test: Antagonist activity at P2X7R in mouse N2a cells assessed as inhibition of ATP-induced ROS production at 1 uM incubated for 1 hr by using H2DCF-DA probe based fluorescence assay relative to control
[10] = target: T1, P2X purinoceptor 7 (Mus musculus); test: Antagonist activity at P2X7R in mouse N2a cells assessed as inhibition of ATP-induced NO production by measuring NO level at 1 uM incubated for 1 hr by using DAF-FM probe based fluorescence assay relative to control; design: scale not given: the % may be the effect or the level left
[11] = target: T1, P2X purinoceptor 7 (Mus musculus); test: Antagonist activity at P2X7R in mouse N2a cells assessed as reduction in ATP-induced calcium influx at 5 uM incubated for 1 hr by Fura-2AM dye based spectrofluorometry relative to control
[12] = target: T1, P2X purinoceptor 7 (Mus musculus); test: Antagonist activity at P2X7R in mouse N2a cells assessed as inhibition of ATP-induced NO production at 0.1 to 10 uM incubated for 1 hr by using DAF-FM probe based fluorescence assay; details: dose 0.1-10 µM
[13] = target: T1, P2X purinoceptor 7 (Mus musculus); test: Antagonist activity at P2X7R in mouse N2a cells assessed as reduction in ATP-induced YO-PRO-1 uptake by cells incubated for 1 hr by fluorescence based assay; details: dose 0.1-10 µM
[14] = target: T1, P2X purinoceptor 7 (Mus musculus); test: Antagonist activity at P2X7R in mouse N2a cells assessed as cytoprotective activity against ATP-induced cell death by measuring increase in cell viability at 1 uM incubated for 1 hr followed by ATP addition and measured after 48 hrs by MTT assay relative to control; details: time 49.0 hrs
[15] = target: T1, P2X purinoceptor 7 (Mus musculus); test: Antagonist activity at P2X7R in mouse N2a cells assessed as inhibition of ATP-induced ROS production at 0.1 uM incubated for 1 hr by using H2DCF-DA probe based fluorescence assay relative to control
[16] = target: T1, P2X purinoceptor 7 (Mus musculus); test: Antagonist activity at P2X7R in mouse N2a cells assessed as inhibition of ATP-induced NO production by measuring NO level at 10 uM incubated for 1 hr by using DAF-FM probe based fluorescence assay relative to control; design: scale not given: the % may be the effect or the level left
[17] = target: T1, P2X purinoceptor 7 (Mus musculus); test: Antagonist activity at P2X7R in mouse N2a cells assessed as reduction in ATP-induced EtBr uptake by cells at 0.1 to 10 uM incubated for 1 hr by fluorescence based assay; details: dose 0.1-10 µM
[18] = target: T1, P2X purinoceptor 7 (Mus musculus); test: Antagonist activity at P2X7R in mouse N2a cells assessed as reduction in ATP-induced YO-PRO-1 uptake by cells at 5 uM incubated for 1 hr by fluorescence imaging based laser scanning microscopic analysis
[19] = target: T1, P2X purinoceptor 7 (Mus musculus); test: Antagonist activity at P2X7R in mouse N2a cells assessed as reduction in ATP-induced calcium influx at 50 uM incubated for 1 hr by Fura-2AM dye based spectrofluorometry
[20] = target: T1, P2X purinoceptor 7 (Mus musculus); test: Antagonist activity at P2X7R in mouse N2a cells assessed as inhibition of ATP-induced ROS production at 50 uM incubated for 1 hr by using H2DCF-DA probe based fluorescence assay
[21] = target: T1, P2X purinoceptor 7 (Mus musculus); test: Antagonist activity at P2X7R in mouse N2a cells assessed as inhibition of ATP-induced NO production at 50 uM incubated for 1 hr by using DAF-FM probe based fluorescence assay

CCOc1ccc(Nc2ccc(/C(=C3C=C/C(=[N+](/CC)Cc4cccc(S(=O)(=O)[O-])c4)C=C/3C)c3ccc(N(CC)Cc4cccc(S(=O)(=O)O)c4)cc3C)cc2)cc1
Activity [1]: 14.6%
inhibition [2]: Active
inhibition [3]: Active
inhibition [4]: Active
inhibition [5]: 46%

Cc1c(C)c(O)c2c(c1O)C(=O)C1=C(S[C@H]3O[C@@H](CO)[C@H](O)[C@@H](O)[C@@H]3O1)C2=O
inhibition [6]: 18.3%
inhibition [7]: Active
EC50 (N2a): 22.6 µM
inhibition [4]: 20.7%
Activity [8]: inactive
inhibition [9]: 58.4%
Activity [10]: 48.5%
inhibition [11]: 36%

COC1=C(S[C@@H]2O[C@H](CO)[C@@H](O)[C@H](O)[C@H]2O)C(=O)c2ccccc2C1=O
inhibition [12]: inactive
inhibition [13]: Dose-dependent effect
inhibition [6]: 34.8%
Activity [14]: 22.2%
EC50 (N2a): 75.2 µM
inhibition [4]: 60.9%
inhibition [15]: 69.8%
inhibition [11]: 15.1%

O=C1C2=C(S[C@H]3O[C@@H](CO)[C@H](O)[C@@H](O)[C@@H]3O2)C(=O)c2ccccc21
inhibition [13]: Dose-dependent effect
inhibition [6]: 42.6%
Activity [14]: 19.6%
EC50 (N2a): 29.5 µM
inhibition [4]: 46.2%
Activity [16]: 44.5%
inhibition [17]: Active
inhibition [18]: Active
inhibition [15]: 66.3%
inhibition [11]: 32.7%

Clc1cccc(-c2nnnn2Cc2cccnc2)c1Cl
inhibition [11]: 90%

COC1=C(S[C@@H]2O[C@H](COC(C)=O)[C@@H](OC(C)=O)[C@H](OC(C)=O)[C@H]2OC(C)=O)C(=O)c2c(O)c(C)c(C)c(O)c2C1=O
inhibition [13]: Dose-dependent effect
inhibition [6]: 25.2%
EC50 (N2a): 17.8 µM
inhibition [4]: 54.1%
Activity [8]: inactive
inhibition [9]: 70.9%
Activity [10]: 56.8%
inhibition [11]: inactive

Cc1cc(/N=N/c2ccc(S(=O)(=O)O)cc2S(=O)(=O)O)c(COP(=O)(O)O)c(C=O)c1O
inhibition [19]: Active
inhibition [20]: Active
inhibition [21]: Active
